pIC50: −log10 of the molar value.
How the values were obtained:
T47D = assay: Antiproliferative activity against human T47D cells after 72 hrs by MTT assay; format: functional, cell-based
MCF7 = assay: Antiproliferative activity against human MCF7 cells after 72 hrs by MTT assay; format: functional, cell-based; settings: MCF7, 72 h
MDA-MB-231 [1] = assay: Antiproliferative activity against human MDA-MB-231 cells after 72 hrs by MTT assay; format: functional, cell-based; settings: MDA-MB-231, 72 h
HCC827 = assay: Antiproliferative activity against human HCC827 cells after 72 hrs by MTT assay; format: functional, cell-based; settings: HCC827, 72 h
HeLa = assay: Antiproliferative activity against human HeLa cells after 72 hrs by MTT assay; format: functional, cell-based
K562 = assay: Antiproliferative activity against human K562 cells after 72 hrs by MTT assay; format: functional, cell-based; settings: K562, 72 h
U-937 = assay: Antiproliferative activity against human U937 cells after 72 hrs by MTT assay; format: functional, cell-based; settings: U-937, 72 h
MDA-MB-231 [2] = assay: Antiproliferative activity against human MDA-MB-231 cells after 5 days by MTT assay; format: functional, cell-based; settings: MDA-MB-231, 120 h
MCF-10A = assay: Antiproliferative activity against human MCF10A cells after 72 hrs by MTT assay; format: cell-based
Raji = assay: Antiproliferative activity against human Raji cells after 3 days by MTT assay; format: functional, cell-based; settings: 72 h
HCC1937 = assay: Antiproliferative activity against human HCC1937 cells after 3 days by MTT assay; format: functional, cell-based; settings: HCC1937, 72 h
[3] = molecular target: Poly [ADP-ribose] polymerase 1 (Homo sapiens, UniProt P09874); assay: Inhibition of recombinant full length human N-terminal GST-tagged PARP1 expressed in baculovirus infected Sf9 cells using biotinylated substrate after 1 hr by UV/Vis spectrophotometric analysis
Sequence of Poly [ADP-ribose] polymerase 1 (P09874 whole entry, the tested form may be a part): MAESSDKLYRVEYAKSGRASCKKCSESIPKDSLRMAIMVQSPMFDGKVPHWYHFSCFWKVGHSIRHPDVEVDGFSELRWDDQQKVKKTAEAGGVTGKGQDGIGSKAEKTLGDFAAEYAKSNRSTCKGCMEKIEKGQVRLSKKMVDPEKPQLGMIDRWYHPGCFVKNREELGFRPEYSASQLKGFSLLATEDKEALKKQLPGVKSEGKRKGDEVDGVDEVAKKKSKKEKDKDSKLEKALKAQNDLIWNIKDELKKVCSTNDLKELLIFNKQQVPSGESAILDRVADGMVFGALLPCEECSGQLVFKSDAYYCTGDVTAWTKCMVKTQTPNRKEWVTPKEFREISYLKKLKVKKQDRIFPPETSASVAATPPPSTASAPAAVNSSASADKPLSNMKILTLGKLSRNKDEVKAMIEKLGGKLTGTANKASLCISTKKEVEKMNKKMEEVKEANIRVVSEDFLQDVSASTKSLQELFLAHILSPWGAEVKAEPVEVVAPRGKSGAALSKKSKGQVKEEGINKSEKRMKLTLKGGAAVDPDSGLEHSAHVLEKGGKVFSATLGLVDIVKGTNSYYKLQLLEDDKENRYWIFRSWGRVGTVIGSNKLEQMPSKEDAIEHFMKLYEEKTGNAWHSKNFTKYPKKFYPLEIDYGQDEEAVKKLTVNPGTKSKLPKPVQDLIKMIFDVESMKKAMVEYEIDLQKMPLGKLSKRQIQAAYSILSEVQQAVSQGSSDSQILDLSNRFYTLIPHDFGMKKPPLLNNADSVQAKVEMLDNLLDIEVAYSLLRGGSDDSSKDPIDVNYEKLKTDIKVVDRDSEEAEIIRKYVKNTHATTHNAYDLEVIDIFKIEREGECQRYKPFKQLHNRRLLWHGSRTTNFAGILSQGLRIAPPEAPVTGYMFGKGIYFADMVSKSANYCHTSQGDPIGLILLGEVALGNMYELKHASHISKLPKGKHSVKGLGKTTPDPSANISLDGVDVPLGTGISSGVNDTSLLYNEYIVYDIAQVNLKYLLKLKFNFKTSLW

[4] = molecular target: Poly [ADP-ribose] polymerase 2 (Homo sapiens, UniProt Q9UGN5); assay: Inhibition of recombinant human N-terminal GST-tagged PARP2 (2 to 583 residues) expressed in baculovirus infected Sf9 cells using biotinylated substrate after 1 hr by UV/Vis spectrophotometric analysis
Sequence of Poly [ADP-ribose] polymerase 2 (Q9UGN5 whole entry, the tested form may be a part): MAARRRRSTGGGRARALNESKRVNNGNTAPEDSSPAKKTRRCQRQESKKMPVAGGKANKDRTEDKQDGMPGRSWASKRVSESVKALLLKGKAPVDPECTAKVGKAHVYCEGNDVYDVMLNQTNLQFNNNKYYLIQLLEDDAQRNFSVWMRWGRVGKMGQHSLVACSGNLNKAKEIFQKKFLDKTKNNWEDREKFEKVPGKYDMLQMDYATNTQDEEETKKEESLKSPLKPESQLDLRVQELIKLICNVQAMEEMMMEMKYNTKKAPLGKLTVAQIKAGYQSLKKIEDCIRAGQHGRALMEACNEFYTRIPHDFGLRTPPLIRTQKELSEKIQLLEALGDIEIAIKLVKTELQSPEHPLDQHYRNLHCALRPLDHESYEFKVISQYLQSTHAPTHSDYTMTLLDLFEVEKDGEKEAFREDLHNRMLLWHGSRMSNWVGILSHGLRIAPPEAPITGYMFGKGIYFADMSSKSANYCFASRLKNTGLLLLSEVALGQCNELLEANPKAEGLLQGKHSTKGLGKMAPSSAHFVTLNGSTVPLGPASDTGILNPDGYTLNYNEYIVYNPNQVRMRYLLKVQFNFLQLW

Histone deacetylase 1 = Histone deacetylase 1 (Homo sapiens, UniProt Q13547); assay: Inhibition of HDAC1 (unknown origin) using acetylated peptide substrate preincubated for 15 mins followed by substrate addition measured after 60 mins by fluorescence analysis
Sequence of Histone deacetylase 1 (Q13547 whole entry): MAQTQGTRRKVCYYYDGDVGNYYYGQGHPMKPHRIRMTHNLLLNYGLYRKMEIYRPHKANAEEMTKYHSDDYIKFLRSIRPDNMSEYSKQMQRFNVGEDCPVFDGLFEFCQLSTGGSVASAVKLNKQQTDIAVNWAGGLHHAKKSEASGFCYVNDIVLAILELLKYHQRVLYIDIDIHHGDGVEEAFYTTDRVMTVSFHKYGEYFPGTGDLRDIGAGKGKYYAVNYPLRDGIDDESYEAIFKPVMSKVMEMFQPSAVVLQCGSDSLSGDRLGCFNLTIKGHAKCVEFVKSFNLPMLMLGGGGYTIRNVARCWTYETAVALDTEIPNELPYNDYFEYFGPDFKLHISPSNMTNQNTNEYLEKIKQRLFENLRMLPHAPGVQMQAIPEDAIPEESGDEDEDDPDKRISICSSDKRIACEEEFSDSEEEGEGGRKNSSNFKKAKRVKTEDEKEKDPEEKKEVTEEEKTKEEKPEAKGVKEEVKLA

[5] = molecular target: T1, Protein deacetylase HDAC6 (Homo sapiens, UniProt Q9UBN7); assay: Inhibition of HDAC6 (unknown origin) using acetylated peptide substrate preincubated for 15 mins followed by substrate addition measured after 60 mins by fluorescence analysis
T1 sequence (Q9UBN7 whole entry): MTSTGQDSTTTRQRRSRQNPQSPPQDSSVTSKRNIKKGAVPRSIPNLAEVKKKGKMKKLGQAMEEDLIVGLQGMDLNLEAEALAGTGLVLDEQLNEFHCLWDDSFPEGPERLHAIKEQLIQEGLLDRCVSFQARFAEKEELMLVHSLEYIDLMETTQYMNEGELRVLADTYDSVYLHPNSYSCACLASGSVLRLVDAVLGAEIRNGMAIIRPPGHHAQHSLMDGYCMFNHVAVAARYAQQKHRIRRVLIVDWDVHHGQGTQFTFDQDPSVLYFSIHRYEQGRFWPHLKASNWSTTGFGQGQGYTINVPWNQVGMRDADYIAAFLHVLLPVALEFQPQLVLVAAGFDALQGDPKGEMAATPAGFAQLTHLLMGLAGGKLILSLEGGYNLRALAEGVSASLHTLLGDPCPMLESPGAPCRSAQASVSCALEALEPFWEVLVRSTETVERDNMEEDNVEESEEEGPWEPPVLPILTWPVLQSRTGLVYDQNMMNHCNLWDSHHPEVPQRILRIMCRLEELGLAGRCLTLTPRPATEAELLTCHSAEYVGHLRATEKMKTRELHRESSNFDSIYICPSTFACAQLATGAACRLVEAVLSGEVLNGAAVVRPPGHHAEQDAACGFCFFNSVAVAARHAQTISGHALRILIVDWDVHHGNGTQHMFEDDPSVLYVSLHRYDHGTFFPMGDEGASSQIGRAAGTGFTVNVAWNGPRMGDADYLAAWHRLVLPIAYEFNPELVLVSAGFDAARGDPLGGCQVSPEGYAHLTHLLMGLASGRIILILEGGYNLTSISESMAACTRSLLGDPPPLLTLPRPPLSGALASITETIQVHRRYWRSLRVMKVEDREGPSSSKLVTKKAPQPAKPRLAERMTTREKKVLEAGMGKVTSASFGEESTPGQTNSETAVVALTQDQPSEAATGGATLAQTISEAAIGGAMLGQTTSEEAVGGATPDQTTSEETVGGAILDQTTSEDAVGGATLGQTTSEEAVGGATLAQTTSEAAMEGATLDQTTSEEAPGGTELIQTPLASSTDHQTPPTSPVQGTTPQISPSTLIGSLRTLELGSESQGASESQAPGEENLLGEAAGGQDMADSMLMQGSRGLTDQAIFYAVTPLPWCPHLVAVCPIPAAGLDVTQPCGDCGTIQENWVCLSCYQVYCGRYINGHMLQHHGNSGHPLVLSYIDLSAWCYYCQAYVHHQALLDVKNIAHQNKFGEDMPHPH

[6] = Antiproliferative activity against human MCF10A cells at less than 50 uM after 72 hrs by MTT assay relative to control; format: cell-based, MCF-10A

pIC50 (T47D) | pIC50 (MCF7) | pIC50 (MDA-MB-231 [1]) | pIC50 (HCC827) | pIC50 (HeLa) | pIC50 (K562) | pIC50 (U-937) | pIC50 (MDA-MB-231 [2]) | pIC50 (Raji) | pIC50 (HCC1937) | pIC50 [3] | pIC50 [4] | pIC50 (Histone deacetylase 1) | pIC50 [5] | Compound | pIC50 (MCF-10A) | inhibition at 72 h [6]
< 4.30 | 4.45 | 4.40 | < 4.30 | < 4.30 | < 4.30 | 4.66 | 5.10 | < 4.30 | 5.06 |  |  |  |  | O=C(c1cc(Cc2n[nH]c(=O)c3ccccc23)ccc1F)N1CCN(C(=O)C2CC2)CC1 [OLAPARIB] | < 4.30 | 
< 4.30 | 4.38 | 4.24 | 4.49 | < 4.30 | < 4.30 | 4.51 | 4.45 |  |  | 7.69 | 7.31 | 6.04 | 6.89 | O=C(Cc1ccc(CN2CCN(C(=O)c3cc(Cc4n[nH]c(=O)c5ccccc45)ccc3F)CC2)cc1)NO | < 4.30 | 20 to 30%
 |  |  |  |  |  |  |  |  |  |  |  |  |  | O=C(CCCCCCC(=O)Nc1ccccc1)NO [VORINOSTAT] | 5.68 | 
